The text below walks through data of patent US11718628B2, “SREBP inhibitors comprising a 6-membered central ring” (Capulus Therapeutics, LLC, priority 2018, dated 2023).

Data set [1] in a line: Half-life in human liver microsomes. The class given is in vitro ADME. The following applies: NADPH, 37° C.; for half-life at 1 µM: human, liver microsomes, read-out: G: half-life human liver microsomes. The protocol: (§1) Half-life Human Microsomes: Compounds were evaluated for stability in human liver microsomes. A 10 mM stock solution of the compound being evaluated was prepared in DMSO and diluted with water:acetonitrile (1:1) to a concentration of 1 mM. A working concentration of 100 μM was prepared by further dilution with water:acetonitrile (1:1). To make the preincubation mixture, 2.5 μL of the diluted compound was combined with 75 μL of human liver microsomes at 3.33 mg/mL, and 85 μL of 100 mM potassium phosphate buffer, and this mixture was pre-incubated for 10 min at 37° C. To make the 60 minute mixture without cofactor, 32.5 μL of the preincubation mixture was combined with 17.5 μL of 100 mM potassium phosphate buffer and incubated for 60 min at 37° C. To make the 0 min sample with cofactor (NADPH), 16.25 μL of the preincubation mixture was combined with 200 μL of acetonitrile containing internal standard and 8.75 μL of cofactor (NADPH). To make the incubation mixture, 62 μL of cofactor (2.85 mM) was combined with the remaining incubation mixture, and incubated for 60 min at 37° C. To prepare the sample mixture to be evaluated, 25 μL incubation mixture was combined with 200 μL of acetonitrile containing internal standard and vortexed for 5 min at 1200 rpm, then centrifuged for 10 min at 4000 rpm. The supernatant was diluted 2 fold with water and injected on LC-MS/MS. The sample mixture was evaluated by LC-MS/MS using 10 mM ammonium acetate with 0.1% FA as the aqueous mobile phase, and methanol as the organic mobile phase.
A general note: Microsomes from liver hold many membrane-bound enzymes, among them those of drug oxidation.

Data set [2] is described as follows: Half-life in mouse liver microsomes. The data set is classed as in vitro ADME. The note with it: for half-life at 1 µM: mouse, liver microsomes, read-out: H: half-life of mouse liver microsomes. On the procedure: as §1
Half-life Mouse Microsomes: Compounds were evaluated in mouse liver microsomes following a similar procedure as described above for human liver microsomes. A similar procedure could be used to evaluate compounds in rat liver microsomes.

The next data set in a line: Kinetic solubility. The following applies: pH 7.4 buffer, room temperature, 1.0% DMSO; for solubility kinetic at 24 h: aqueous buffer, kinetic from dmso stock, read-out: I: kinetic solubility class. The data set is classed as physicochemical. On the procedure: Kinetic Solubility Procedure: A 10 mM stock solution of a compound was prepared in DMSO, then 4 μL of the stock was added to a deep well plate containing 396 μL of pH 7.4 buffer. The sample plate was vortexed at 800 rpm for 24 h on thermomixer at room temperature. The plate was sealed well during the incubation process. The DMSO content in the sample was 1.0%. The concentration of the evaluated compound in the final incubation was 100 μM. At the end of the incubation period, the sample plate was centrifuged at 4000 rpm for 10 min and analyzed in LC-UV against a calibration curve (CC). Values <10 μg/mL=Low; 10 to 60 μg/mL=Medium; >60 μg/mL=High.

The nature of data set [3]: In vivo pharmacokinetic properties in rats (IV and PO). The arrangement: species or system male Sprague Dawley rats. On the procedure: (§2) The in vivo pharmacokinetic properties of compounds by both intravenous and oral administration were evaluated in male Sprague Dawley rats or C57BL/6J mice.
(§3) Animals were housed in cages with clean bedding. Certified rodent diet was provided. Water was available ad libitum. Environmental controls for the animal room were set to maintain a temperature of 22° C. to 25° C., humidity of 40-70% RH, and a 12-hour light/12-hour dark cycle. Normal healthy animals certified by the attending veterinarian were selected and acclimatized for minimum three days prior to initiation of study.
Surgical Procedure for Jugular Vein Cannulation of Rats: Rats were anaesthetized with a single dose of ketamine 50 mg/kg i.p.+xylazine 6 mg/kg i.p. The right jugular vein was exposed, a loose ligature was placed caudally, and the cranial end of vein was ligated. A small incision was made between the ligatures into which the catheter (polyethylene 50 tubing of internal diameter 0.58 mm and outer diameter 0.96 mm) was inserted. The catheter was secured in place by tying the loose ligature around the catheterized vessel. A small incision was made in the scapular region to serve as the exit site of the catheter. The catheter was subcutaneously tunneled and exteriorized through scapular incision. A stay suture was placed in the scapular area. Patency was tested, and catheter was filled with a locking solution (heparinized saline) and sealed with a stainless steel plug. The incision was then sutured with sterile suturing material. Anti-septic solution was applied to the sutured site and animal was placed back in the home cage.
(§4) To evaluate pharmacokinetic properties of intravenous delivery, male Sprague Dawley rats were administered 2.00 mg compound/kg animal weight through the tail vein. The concentration of the compound in the plasma of the animals was evaluated at 0.083, 0.25, 0.5, 1, 2, 4, 8, 12 and 24 hr by taking blood samples from the cannulated jugular vein. For the C5Bl/6J mice, blood samples were collected through a capillary, guided in retro-orbital plexus.
To evaluate pharmacokinetic properties of oral delivery, rats (male Sprague Dawley rats) or mice (C5Bl/6J) were administered 10 mg compound/kg animal weight by mouth. The concentration of compound in the plasma of the animals was evaluated at 0.25, 0.5, 1, 2, 4, 6, 8, 12 and 24 hr by taking blood samples from the cannulated jugular vein (rats) or through a capillary, guided in retro-orbital plexus (mice).

A short description of data set [4]: In vivo pharmacokinetic properties in mice (IV and PO). Also noted: species or system C57BL/6J mice. The note with it: mice. The protocol: as §2, §3, §4
[…] The concentration of compound in the plasma of the animals was evaluated at 0.25, 0.5, 1, 2, 4, 6, 8, 12 and 24 hr by taking blood samples from the cannulated jugular vein (rats) or through a capillary, guided in retro-orbital plexus (mice).

Converted amounts (≈) assume the structure as drawn.

Usually half-life stands for the time in which the quantity being followed falls by half. Usually kinetic solubility stands for the concentration staying in solution when a stock, usually in DMSO, is diluted into the medium. `O=C(c1ccc(-c2cncc(-c3ccnc4c3CCC4)c2)c(Cl)c1)N1CCC(O)CC1`: the half-life at 1 µM in data set [1] was found to be 9.79 min; in data set [2], 0.457 h. In the data set “Kinetic solubility”, the solubility (kinetic) at 24 h lay within 10 to 60 µg/mL (≈ 23 to 138 µM).

With `CC(C)(C)c1cc(-c2cncc(-c3ccc(NC(=O)OC4CCC(O)CC4)cc3Cl)c2)ccn1` (stereo not drawn), the half-life at 1 µM in data set [1] is 31.3 min; in data set [2], 2 h. In the data set “Kinetic solubility”, the kinetic solubility at 24 h was less than 10 µg/mL.

With `CC(C)(C)c1cc(-c2cncc(-c3ccc(C(=O)N4CCC(O)CC4)cc3)c2F)ccn1` [drawing 321], the half-life at 1 µM is 126 min in data set [1] and 1.38 h in data set [2]. Also, the kinetic solubility at 24 h in the data set “Kinetic solubility” lay in the range of 10 to 60 µg/mL (≈ 23.1 to 138 µM).

On to `Cc1cc(C(=O)N2CCC(O)CC2)ccc1-c1cncc(-c2ccnc(C(C)(C)C)c2)c1` [drawing 337], for which the half-life at 1 µM came to 13.9 min in data set [1] and 3.55 h in data set [2]. Also, in “Kinetic solubility”, the solubility (kinetic) at 24 h lay within 10 to 60 µg/mL (≈ 23.3 to 140 µM).

As for `CC(C)(C)c1cc(-c2cncc(-c3ccc(NS(C)(=O)=O)cc3Cl)c2)ccn1` [drawing 346], the half-life at 1 µM in data set [1] was 19.8 min; in data set [2] it was 0.993 h. Further, in “Kinetic solubility”, the kinetic solubility at 24 h was less than 10 µg/mL.

Regarding `CC(C)(O)c1cc(-c2cncc(-c3ccc(C(=O)N4CCC(O)CC4)cc3Cl)c2)ccn1` [drawing 356], the half-life at 1 µM was 541 min in data set [1] and 48.7 h in data set [2]. In addition, the kinetic solubility at 24 h in the data set “Kinetic solubility” is 10 to 60 µg/mL (≈ 22.1 to 133 µM).

In the case of `CC1(O)CCCN(C(=O)c2ccc(-c3cncc(-c4ccnc(C(C)(C)C)c4)c3)c(Cl)c2)C1` (stereo not drawn) [drawing 366], the half-life at 1 µM in data set [1] was 5.81 min; in data set [2], 0.19 h. In the data set “Kinetic solubility”, the kinetic solubility at 24 h fell in the range of 10 to 60 µg/mL (≈ 21.6 to 129 µM).

Turning to `CC1(O)CCN(C(=O)c2ccc(-c3cncc(-c4ccnc(C(C)(C)C)c4)c3)c(Cl)c2)CC1` [drawing 369], the half-life at 1 µM was 13 min in data set [1] and 0.505 h in data set [2]. The solubility (kinetic) at 24 h in “Kinetic solubility” fell in the range of 10 to 60 µg/mL (≈ 21.6 to 129 µM).

On to `CC(C)OC(=O)Nc1ccc(-c2cncc(-c3ccnc(C4OCCO4)c3)c2)c(Cl)c1` [drawing 371], for which the half-life at 1 µM in data set [1] worked out at 13.5 min; in data set [2] it was 0.32 h. Also, the kinetic solubility at 24 h in “Kinetic solubility” was less than 10 µg/mL.

Turning to `CC(C)OC(=O)Nc1ccc(-c2cncc(-c3ccnc(C(C)(C)C)c3)c2)c(Cl)c1` [drawing 372], the half-life at 1 µM came to 69.9 min in data set [1] and 3.7 h in data set [2]. For the same molecule, the solubility (kinetic) at 24 h in “Kinetic solubility” is less than 10 µg/mL.

As to `COC1CCCN(C(=O)c2ccc(-c3cncc(-c4ccnc(C(C)(C)C)c4)c3)c(Cl)c2)C1` (stereo not drawn) [drawing 375], the half-life at 1 µM in data set [1] stood at 2.02 min; in data set [2], 0.15 h. In “Kinetic solubility”, the kinetic solubility at 24 h is 10 to 60 µg/mL (≈ 21.6 to 129 µM).

`CC(C)(C)c1cc(-c2cc(-c3ccc(C(=O)N4CCC(O)CC4)cc3Cl)ncn2)ccn1` [drawing 376]: the figures for the half-life at 1 µM in data set [1] and in data set [2] were 20.3 min and 1.14 h, respectively. For the same molecule, the solubility (kinetic) at 24 h in the data set “Kinetic solubility” was 10 to 60 µg/mL (≈ 22.2 to 133 µM).

Take `CC(C)(C)c1cc(-c2cccc(-c3ccc(C(=O)N4CCC(O)CC4)cc3Cl)c2)ccn1` [drawing 377]: the half-life at 1 µM in data set [1] turned out to be 46.5 min; in data set [2], 1.5 h. In addition, the kinetic solubility at 24 h in the data set “Kinetic solubility” is less than 10 µg/mL.

On to `CC(C)(C)c1cc(-c2cncc(-c3ccc(C(=O)N4CCC(O)CC4)cc3Cl)c2)ccn1` [drawing 378], for which the half-life at 1 µM is 61.2 min in data set [1] and 1.33 h in data set [2]. Further, the solubility (kinetic) at 24 h in the data set “Kinetic solubility” is 10 to 60 µg/mL (≈ 22.2 to 133 µM).

In the case of `CC(C)(C)c1cc(-c2cncc(-c3ccc(C(=O)N4CCC(O)C(O)C4)cc3Cl)c2)ccn1` (stereo not drawn) [drawing 419], the half-life at 1 µM in data set [1] turned out to be 21.8 min; in data set [2], 1.11 h. Moreover, the kinetic solubility at 24 h in the data set “Kinetic solubility” was in the range of 10 to 60 µg/mL (≈ 21.5 to 129 µM).

Turning to `CC(C)(C)c1cc(-c2cncc(-c3ccc(C(=O)N4CCC(O)C(O)C4)cc3Cl)c2)ccn1` (stereo not drawn) [drawing 423], the “G: half-life human liver microsomes” value in data set [1] was found to be 21.4 min. The “H: half-life of mouse liver microsomes” value in data set [2] is 56.5 min. Besides, the “I: kinetic solubility class” value in “Kinetic solubility” (24 h) is given as “MEDIUM (10 to 60 μg/mL=Medium)”.

As for “N-(4-(2′-(tert-butyl)-[3,4′-bipyridin]-5-yl)-3-chlorophenyl)-isopropylsulfamoyl urea [Compound Z-812]”, in data set [3] (IV, 2 mg/kg), the “Intravenous Delivery (IV) CL” value came to 53.5 mL/min/kg, the “Intravenous Delivery (IV) T1/2” value was found to be 112 min and the “Intravenous Delivery (IV) Vd” value came to 8.65 L/kg. In addition, the “% F (Bioavailability of oral delivery)” value in data set [3] (PO 10 mg/kg vs IV 2 mg/kg) is given as 0.65%. Further, in data set [3] (PO, 10 mg/kg), the Oral Administration (PO) AUC0-last is 18 ng·h/mL, the “Oral Administration (PO) T1/2” value is 81 min and the “Oral Administration (PO) Tmax” value turned out to be 19.8 min. Also, in data set [4] (IV, 2 mg/kg), the Intravenous Delivery (IV) AUC0-last turned out to be 1150 ng·h/mL, the “Intravenous Delivery (IV) CL” value is reported as 28.6 mL/min/kg, the “Intravenous Delivery (IV) T1/2” value is 67.2 min and the “Intravenous Delivery (IV) Vd” value was 2.78 L/kg. Further, the “% F (Bioavailability of oral delivery)” value in data set [4] (PO 10 mg/kg vs IV 2 mg/kg) worked out at 52%. Further, in data set [4] (PO, 10 mg/kg), the Oral Administration (PO) AUC0-last worked out at 3000 ng·h/mL, the “Oral Administration (PO) T1/2” value is 253 min and the “Oral Administration (PO) Tmax” value was 15 min.
